Data set [1] relates to LoVo colon carcinoma xenografts. Briefly: Single agent efficacy, ATM pathway deficient LoVo xenograft. Format: in vivo, mouse. The source says: We tested the effect of Compound 1 on the growth of established LoVo colon carcinoma xenografts that are known to be deficient in ATM pathway function due to mutation in the MRE11 protein.
Data set [2] deals with FaDu (H&N, squamous) xenograft. The class given is in vivo. The source says:
The models were chosen from different cancer indications (colon, lung, head and neck, pancreatic), and histological subtypes (adeno, squamous, large cell). […]
The resulting Kaplan-Meier plots were compared by the log-rank test.

The next data set concerns the target T1, DNA-PK (p-Ser2056) (Homo sapiens, UniProt P78527).
T1 construct: from tissue; host or cells: human tumor xenografts (FaDu, HCT116, WM164) grown in mice
Kind of data set: IR-induced DNA-PK phosphorylation in tumor tissue, ELISA, FaDu xenograft. Format: in vivo. The note with it: IR 50 Gy. The source says: Following the induction of DSB by radiation therapy or other DNA damaging agents, the catalytic subunit of DNA-PK (DNA-PKc) is autophosphorylated at several serine and threonine residues. Ser2056 is one of the most prominent and best studied autophosphorylation sites. Because Ser2056 phosphorylation (p-Ser2056) correlated well with DNA-PK activation state it was chosen as the pharmacodynamics (PD) biomarker. Two different assay formats were established to measure p-Ser2056 in tumor tissue: ELISA and MSD format. In order to detect sequence reliable signal, IR was used at 50 Gy for the ELISA assay and 10 Gy for the more sensitive MSD assay.
A general note: In an ELISA, binding on a coated surface is turned into a signal by an enzyme label.

A further data set has as its system FaDu xenograft. The class given is in vivo. An excerpt: The standard radiotherapy regimen used in the clinic is a 6-week fractionated treatment schedule (5 fractions of 2 Gy IR per week—60 Gy total).
For the next data set, the system named is FaDu. Briefly: AlamarBlue viability assay. Format: cell-based, human. As for the experimental part: (§1) Compound 1 in combination with etoposide or cisplatin was tested in the following cancer cell lines for inhibition of tumor cells: human lung carcinoma (NCI-H460), human glioblastoma (MO59K and MO59J), and human squamous cell carcinoma pharynx (FaDu). Details of the assay protocol and material utilized are set forth below.
(§2) Cells were plated in a volume of 180 μl/well in 96-well plates: (FaDu: 1000 cells/well (168 h); NCI-H460 3000 cells/well (72 h) and 1000 cells/well (168 h); MO59J: 5000 cells/well (72 h) and 2000 cells/well (168 h); MO59K: 2000c/well (72 h) and 1000 cells/well (168 h)) and incubated at 37° C. and relevant C02 for 24 h hours. 20 μl per well of medium including serial dilutions of Compound 1 and/or Etoposide or Cisplatin were added to the culture plates and the incubation was continued further for 3 days (72 h) or 7 days (168 h) at 37° C. and relevant CO2. Compound 1 was pre-incubated for 30 min before Etoposide or Cisplatin were added.
(§3) Cells were plated in 200 μl volume per well (FaDu: 1000 cells/well (168 h); NCI-H460 3000 cells/well (72 h) and 1000 cells/well (168 h); MO59J: 5000 cells/well (72 h) and 2000 cells/well (168 h); MO59K: 2000c/well (72 h) and 1000 cells/well (168 h)). After 24 h incubation at 37° C. Compound 1, Etoposide or Cisplatin were dispensed by using the Digital HP Dispenser D300 (and the included dispensing software). Plates were further incubated for 3 days (72 h) or 7 days (168 h) at 37° C. and relevant CO2.
(§4) At the end of the compound incubation period 20 μl AlamarBlue reagent was added per well and the 96-well plates were incubated further up to seven hours. Absorption was determined at 540 nm by using Tecan Reader Connect and Magelan 7.
(§5) 0% effect=cells treated with DMSO; −100% effect=no cells
A general note: The colour change of resazurin is a common sign of viable cells or microbes.

Another data set relates to MO59J (DNA-PK deficient). Kind of data set: AlamarBlue viability assay. The class given is cell-based, human. The note with it: compound incubation for 168 h. The procedure: as §1, §2, §3, §4, §5
Another data set deals with NCI-H460. Briefly: AlamarBlue viability assay. Format: cell-based, human. The procedure: as §1, §2, §3, §4, §5
The test system of another data set is COLO678. Kind of data set: Single agent activity, panel of 81 cancer cell lines plus PBMC. The class given is cell-based. The note with it: Homo sapiens, COLO-678.
Another data set deals with lung cancer cell lines. Kind of data set: cells. The note with it: read-out: Median etoposide concentration needed to reach GI50.
The test system of another data set is 1587MG. Kind of data set: SRB growth inhibition, 93 cell lines panel. The note with it: read-out: GI50 of etoposide (±Compound 1).
The test system of the next data set is SF268. Kind of data set: SRB growth inhibition, 93 cell lines panel. The following applies: Homo sapiens, SF-268, read-out: GI50 of etoposide (±Compound 1).
A further data set relates to HCT15. Briefly: cells. The following applies: Homo sapiens, HCT-15, read-out: GI50 of etoposide (±Compound 1).
Another data set relates to JEG3. Briefly: Single agent activity, panel of 81 cancer cell lines plus PBMC. The class given is cell-based. The following applies: Homo sapiens, JEG-3, lower end of range.
In the next data set the test system is colon cancer cell lines. Briefly: cells. The note with it: read-out: Median etoposide concentration needed to reach GI50.
The subject of the next data set is SKNAS. Kind of data set: SRB growth inhibition, 93 cell lines panel. The following applies: Homo sapiens, SK-N-AS, read-out: GI50 of etoposide (±Compound 1).
The next data set relates to T24. Kind of data set: cells. The following applies: Homo sapiens, T-24, read-out: GI50 of etoposide (±Compound 1).
The subject of the next data set is HELA. Kind of data set: cells. The following applies: Homo sapiens, read-out: GI50 of etoposide (±Compound 1).

SMILES strings stand for the structures. “And” between values parts separate entries of the source, which are not always exact repeats. Equal entries are not always repeated. Where two headings read alike, the source gives them in different places. Bounds are passed on as bounds.

Protocol for 1587MG: (§6) Cell growth and treatment were performed in 96-well microtitre plates CELLSTAR® (Greiner Bio-One, Germany). Cells harvested from exponential phase cultures by trypsinization or by splitting (in the case of cells growing in suspension) were plated in 90 μl of media at optimal seeding densities. The optimal seeding density for each cell line was determined to ensure exponential growth for the duration of the experiment. All cells growing without anticancer agents were sub-confluent by the end of the treatment, as determined by visual inspection. […] The cells were allowed to grow at 37° C. for 72 (or 120) hours. […] Cells were fixed to the surface by addition of 10% TCA (for adherent growing cells) or 50% TCA (for semi-adherent growing cell or cells growing in suspension). After an hour of incubation at 4° C. plates were washed twice with 200 μl of deionized water and dried. Cells were then stained with 100 μl of 0.04% w/v SRB. The plates were incubated at room temperature for at least 30 min and washed six times with 1% acetic acid to remove unbound stain. […] Using these measurements, cellular responses can be calculated for incomplete inhibition of cell growth (GI), complete inhibition of cell growth (TGI) and net loss of cells (LC) due to compound activity. […] TGI was calculated from Ti=Tz.
Protocol for HCT15: (§7) Cell growth and treatment were performed in 96-well microtitre plates CELLSTAR® (Greiner Bio-One, Germany). Cells harvested from exponential phase cultures by trypsinization or by splitting (in the case of cells growing in suspension) were plated in 90 μl of media at optimal seeding densities. The optimal seeding density for each cell line was determined to ensure exponential growth for the duration of the experiment. All cells growing without anticancer agents were sub-confluent by the end of the treatment, as determined by visual inspection.
(§8) 90 μl of cells, after a 48-hour pre-growth period, were treated by mixing with 10 μl of the compound-containing media (resulting in a final DMSO concentration of 0.1%). The cells were allowed to grow at 37° C. for 72 (or 120) hours.
(§9) Cells were fixed to the surface by addition of 10% TCA (for adherent growing cells) or 50% TCA (for semi-adherent growing cell or cells growing in suspension). After an hour of incubation at 4° C. plates were washed twice with 200 μl of deionized water and dried. Cells were then stained with 100 μl of 0.04% w/v SRB. […]
(§10) Using these measurements, cellular responses can be calculated for incomplete inhibition of cell growth (GI), complete inhibition of cell growth (TGI) and net loss of cells (LC) due to compound activity. […] TGI was calculated from Ti=Tz. […] It was calculated as 100×[(Ti−Tz)/Tz]=−50.
Protocol for HELA: as §7, §8, §9, §10
Protocol for SF268: as §6
Protocol for SKNAS: as §6
Protocol for T24: as §7, §8, §9, §10
Protocol for colon cancer cell lines: (§11) Single agent as well as combination treatment growth inhibition effects were measured by ONCOLEAD.
(§12) Relative area above the dose-response curve (relAOC or AOC) were obtained as the area above the dose-response curve in the dose range between 1E-3M and 1E-10M.
Protocol for lung cancer cell lines: as §11, §12

With `COc1ccc([C@@H](O)c2cc(-c3ncnc4cc(N5CCOCC5)ccc34)c(F)cc2Cl)nn1` [Compound 1, (S)-[2-chloro-4-fluoro-5-(7-morpholin-4-yl-quinazolin-4-yl)-phenyl]-(6-methoxy-pyridazin-3-yl)-methanol], in data set [1] (150 mg/kg, three weeks), the tumor growth suppression entry was “nearly complete growth suppression”. In [1] (three week administration), the tumor growth inhibition result was “dose-dependent tumor growth inhibition”. Further, the “Enhancement Ratio [combi/IR only]” value is 2.1 in [2] (IR 10 Gy (5 x 2 Gy) + Compound 1 150 mg/kg po); 1.4 in data set [2] (total IR 10 Gy, 25 mg/kg po); 1.9 in data set [2] (total IR 10 Gy, 100 mg/kg po); 0.9 in data set [2] (total IR 20 Gy, 5 mg/kg po); 1.13 in data set [2] (total IR 20 Gy, 10 mg/kg po); 2 and 1.9 in data set [2] (total IR 30 Gy (6 Gy daily), 10 mg/kg po, 10 mg/kg). In data set [2] (total IR 30 Gy, 5 mg/kg po), the “Enhancement Ratio [combi/IR only]” value stood at 1.4. The “median time to TV400% Combi” value in data set [2] (IR 10 Gy (5 x 2 Gy) + Compound 1 150 mg/kg po 10 min prior to each fraction) is 46 days; in data set [2] (total IR 10 Gy, 25 mg/kg po), 29.5 days; in [2] (total IR 10 Gy, 100 mg/kg po), 40 days; in [2] (total IR 10 Gy, 300 mg/kg po) it was over 63 days; in data set [2] (total IR 20 Gy, 5 mg/kg po) it was 43 days; in data set [2] (total IR 20 Gy, 10 mg/kg po), 56.5 days. The “median time to TV400% Combi” value is recorded as over 94 days in [2] (total IR 20 Gy, 100 mg/kg po); 69 days in [2] (total IR 30 Gy, 5 mg/kg po); 94 days in [2] (total IR 30 Gy, 10 mg/kg po). The tumor response result in [2] (daily 4 Gy (20 Gy total), 100 mg/kg, 92 day observation period) is recorded as “complete response”. Also, the “CR (complete response)” value came out at 60% CR in data set [2] (total IR 10 Gy, 300 mg/kg po, d 63) and 100% CR in data set [2] (total IR 20 Gy, 100 mg/kg po, d 94). For the same compound, the tolerability entry is on record as “not tolerated” in data set [2] (total IR 30 Gy, 100 mg/kg po) and “generally well tolerated” with FaDu xenograft (6 weeks IR + Compound 1). Further, the “inhibition of IR-induced DNA-PK phosphorylation (Ser2056)” value against DNA-PK (p-Ser2056) was “Dose-dependent inhibition”. In addition, the “complete tumor regression, % of the animals” value in the data set with FaDu xenograft (6 weeks IR (60 Gy total) + 10 mg/kg po, no regrowth during study period (113 days)) was determined as 44%. Also, in the data set on FaDu xenograft (6 weeks IR (60 Gy total) + 25 and 50 mg/kg po), the tumor regression entry is on record as “regressed in all 10 animals”. Also, the “tumor growth in comparison to IR alone” value in the data set with FaDu xenograft (6 weeks IR (60 Gy total) + Compound 1 po) was “strong inhibition of tumor growth”. Also, the “inhibition of viability, combination with etoposide” value with FaDu and in the data set on NCI-H460 was “enhanced inhibition of viability” each time. In the data set with MO59J (DNA-PK deficient), the “combination effect with Etoposide on viability” value is “no such combination effect”. Further, in the data set with NCI-H460, the “combination effect with cisplatin on viability” value is recorded as “No significant combination effect”.

On to `COc1cc([C@@H]2c3cc4c(cc3[C@@H](O[C@@H]3O[C@@H]5CO[C@@H](C)O[C@H]5[C@H](O)[C@H]3O)[C@H]3COC(=O)[C@H]23)OCO4)cc(OC)c1O` [Etoposide], for which the GI50 was over 10 µM in the data set with COLO678; 0.32 µM with lung cancer cell lines; 2.4 µM in the data set with 1587MG; 1.97 µM in the data set with SF268; 1.47 µM in the data set on HCT15; 0.03 µM in the data set with JEG3. The GI50 stood at 0.7 µM in the data set with colon cancer cell lines, 2.15 µM in the data set on SKNAS, 2.53 µM in the data set on T24 and 2.36 µM in the data set with HELA.

Values taken from patent US11246929B2, “Combination of a protein kinase inhibitor and an additional chemotherapeutic agent” (Merck Patent GmbH, priority 2016, dated 2022).
